Assay results from patent publication US20060079453A1, “Hla binding peptides and their uses” (priority 2002, published 2006).
Read-outs that look alike come from different tables or passages of the source. No end group written: not given here.

Assays:
HLA-A*0201 = HLA-A*0201 (Homo sapiens, UniProt P04439, D140Y/D185E/D98H/E176V/E277Q/G131W/G231S/I119V/I121R/I166T/I218V/L300P/L318F/N151K/N90K/P208A/P217A/Q86G/Q94H/R138H/R169H/T345S); experiment: biochemical; assay type: binding
HLA-A*6802 = HLA-A*6802 (Homo sapiens, UniProt P04439, A269V/D140Y/D185E/E176V/E277Q/E87N/F33Y/G231S/I121R/I166T/I218V/L180W/L300P/L318F/N151K/P208A/P217A/Q86R/R138H/R169H/S129P/T345S/V36M); experiment: biochemical; assay type: binding
HLA-A*0202 = HLA-A*0202 (Homo sapiens, UniProt P04439, D140Y/D185E/D98H/E176V/E277Q/G131W/G231S/I119L/I121R/I166T/I218V/L180W/L300P/L318F/N151K/N90K/P208A/P217A/Q67R/Q86G/Q94H/R138H/R169H/T345S); experiment: biochemical; assay type: binding
HLA-A*0203 = HLA-A*0203 (Homo sapiens, UniProt P04439, A173T/D140Y/D185E/D98H/E277Q/G131W/G231S/I119V/I121R/I166T/I218V/L180W/L300P/L318F/N151K/N90K/P208A/P217A/Q86G/Q94H/R138H/R169H/T345S); experiment: biochemical; assay type: binding
HLA-A*0206 = HLA-A*0206 (Homo sapiens, UniProt P04439, D140Y/D185E/D98H/E176V/E277Q/F33Y/G131W/G231S/I119V/I121R/I166T/I218V/L300P/L318F/N151K/N90K/P208A/P217A/Q86G/Q94H/R138H/R169H/T345S); experiment: biochemical; assay type: binding
HLA-A*2902 = HLA-A*2902 (Homo sapiens, UniProt P04439, A270S/D101N/D185E/E176V/E277Q/E87Q/F33T/G231S/H175R/I121M/I218V/I322F/K168Q/L300P/L318F/M331R/P208A/P217A/Q86L/T323A/T345S/V100A/V358M); experiment: MHC molecular binding / Capture assay, IC50: A*2902
HLA-A*3002 = HLA-A*3002 (Homo sapiens, UniProt P04439, D101N/D140H/D185E/E176R/F33S/G80R/H175R/K168Q/Q94H/R138E/R41S/V100E); experiment: biochemical; assay type: binding
[1] = read-out: A*0201 binding affinity (expressed as an IC50)
[2] = read-out: A*6802 binding affinity (expressed as an IC50)
[3] = A*0202 binding affinity (expressed as an IC50)
[4] = A*0203 binding affinity (expressed as an IC50)
[5] = A*0206 binding affinity (expressed as an IC50)
[6] = A*6802 binding affinity (expressed as an IC50)
[7] = A*0201 binding affinity (expressed as an IC50)
[8] = Binding affinity to A*2902 (expressed as an IC50)
[9] = Binding affinity to A*3002 (expressed as an IC50)

Molecule | IC50 (HLA-A*0202; [3]) [nM] | IC50 (HLA-A*0203; [4]) [nM] | IC50 (HLA-A*0206; [5]) [nM] | IC50 (HLA-A*6802; [6]) [nM] | further results
IYRGTSFVYV | – | – | – | – | IC50 (HLA-A*0201; [1]): 50000 nM; IC50 (HLA-A*6802; [2]): 1220 nM
MTGNPPIPV | 11 | 0.74 | 79 | 7.8 | –
VLMEWLKTRPI | – | – | – | – | IC50 (HLA-A*0201): 464 nM
ITYSAHDTTV | – | – | – | 82 | –
LLFGWCFKLV | – | – | – | – | IC50 (HLA-A*0202): 84 nM
MTNNPPVPV | 18 | 0.42 | – | – | IC50 (HLA-A*0201; [7]): 86 nM
MTGNPAIPV | – | 10 | – | – | –
FGVRPQVPL | – | – | – | – | IC50 (HLA-A*6802): 321 nM
VLAEAMSHA | – | – | – | – | IC50 (HLA-A*0202): 1.7 nM; IC50 (HLA-A*0203): 1.2 nM; IC50 (HLA-A*0206): 121 nM; IC50 (HLA-A*6802): 431 nM
KIFAVVGIL | – | – | – | – | IC50 (HLA-A*0201; [1]): 3960 nM; IC50 (HLA-A*6802; [2]): 6660 nM
ILSAVVGLL | – | – | – | – | IC50 (HLA-A*0201; [1]): 1460 nM; IC50 (HLA-A*6802; [2]): 11900 nM
QLGPGPGLMEV | 9.4 | 29 | 481 | 648 | –
KIFASVAIL | 16 | 21 | – | 363 | –
QAAESNERY | – | – | – | – | IC50 (HLA-A*2902; [8]): 24300 nM; IC50 (HLA-A*3002; [9]): 3010 nM
MTHNPPIPV | – | 1.4 | 158 | 1.4 | –
CC[C@H](C)[C@H](NC(=O)[C@H](Cc1ccc(O)cc1)NC(=O)[C@H](Cc1ccccc1)NC(=O)[C@H](CCCNC(=N)N)NC(=O)[C@H](CC(N)=O)NC(=O)[C@H](CCSC)NC(=O)[C@@H](N)Cc1ccccc1)C(=O)N[C@H](C(=O)N[C@H](C(=O)O)[C@@H](C)O)[C@@H](C)O | 18 | – | 996 | 6540 | –
AMAKAAAAV | – | 6.7 | 1480 | 177 | –
CC[C@H](C)[C@H](NC(=O)[C@H](CCC(=O)O)NC(=O)[C@H](CC(C)C)NC(=O)[C@H](C)NC(=O)[C@H](CO)NC(=O)[C@H](CO)NC(=O)[C@H](CC(C)C)NC(=O)[C@@H](N)CCC(=O)O)C(=O)N1CCC[C@H]1C(=O)N[C@@H](Cc1ccc(O)cc1)C(=O)O | – | – | – | – | IC50 (HLA-A*2902; [8]): 6030 nM; IC50 (HLA-A*3002; [9]): 4470 nM
VLGPGPGFVTL | 13 | 63 | 4770 | 42100 | –
CC(C)C[C@H](NC(=O)[C@H](Cc1c[nH]cn1)NC(=O)[C@H](CC(C)C)NC(=O)[C@H](CCCCN)NC(=O)[C@H](CCCNC(=N)N)NC(=O)CNC(=O)[C@H](Cc1ccc(O)cc1)NC(=O)[C@@H](NC(=O)[C@@H](N)CCCCN)[C@@H](C)O)C(=O)N[C@@H](Cc1ccc(O)cc1)C(=O)O | – | – | – | – | IC50 (HLA-A*2902; [8]): 27 nM; IC50 (HLA-A*3002; [9]): 1.5 nM
KLTPLCVPL | – | – | – | – | IC50 (HLA-A*0201): 15 nM; IC50 (HLA-A*0202): 0.25 nM; IC50 (HLA-A*0203): 297 nM
SSFFMNRFY | – | – | – | – | IC50 (HLA-A*2902; [8]): 36 nM; IC50 (HLA-A*3002; [9]): 7.5 nM
KLTPRCVTL | – | – | – | – | IC50 (HLA-A*0202): 150 nM; IC50 (HLA-A*0203): 20 nM; IC50 (HLA-A*0206): 1550 nM; IC50 (HLA-A*6802): > 63500 nM
KVGSLQYV | – | – | – | – | IC50 (HLA-A*0203): 703 nM; IC50 (HLA-A*0206): 1900 nM; IC50 (HLA-A*6802): 17500 nM
YLPGPGIRYPL | – | – | 3500 | – | IC50 (HLA-A*0202): 20 nM; IC50 (HLA-A*0203): 1580 nM
FLKEKGGV | – | – | – | – | IC50 (HLA-A*0202): 653 nM; IC50 (HLA-A*0206): > 14300 nM; IC50 (HLA-A*6802): > 19500 nM

Molecule | IC50 (HLA-A*0202; [3]) [nM] | IC50 (HLA-A*0203; [4]) [nM] | IC50 (HLA-A*0206; [5]) [nM] | IC50 (HLA-A*6802; [6]) [nM] | further results
CC[C@H](C)[C@H](NC(=O)[C@@H](N)C(C)C)C(=O)N[C@@H](CS)C(=O)N[C@@H](CO)C(=O)N[C@@H](Cc1ccccc1)C(=O)N[C@@H](CC(C)C)C(=O)N[C@H](C(=O)N[C@@H](Cc1ccccc1)C(=O)N[C@@H](CC(C)C)C(=O)N[C@H](C(=O)O)C(C)C)C(C)C | 415 | 2920 | 197 | 1950 | –
TLHDLCQAV | – | – | – | – | IC50 (HLA-A*0202): 17 nM; IC50 (HLA-A*0203): 15 nM; IC50 (HLA-A*0206): 10600 nM; IC50 (HLA-A*6802): 2810 nM
LFVVYRDSF | – | – | – | – | IC50 (HLA-A*2902): 919 nM; IC50 (HLA-A*3002): 18 nM
YYNNFNNNY | – | – | – | – | IC50 (HLA-A*2902; [8]): 19 nM; IC50 (HLA-A*3002; [9]): 34 nM
AYGPGPGKI | – | – | – | – | IC50 (HLA-A*2902; A*2902 binding affinity (IC50)): > 156000 nM; IC50 (HLA-A*3002; A*3002 binding affinity (IC50)): 5430 nM
SLGPGPGIAV | 5.3 | 11 | 917 | 281 | –
CC(C)C[C@H](NC(=O)[C@H](CO)NC(=O)[C@@H](N)CC(C)C)C(=O)N[C@@H](CC(=O)O)C(=O)N[C@H](C(=O)N[C@@H](CO)C(=O)N[C@@H](C)C(=O)N[C@@H](C)C(=O)N[C@@H](Cc1ccccc1)C(=O)N[C@@H](Cc1ccc(O)cc1)C(=O)O)C(C)C | – | – | – | – | IC50 (HLA-A*2902; [8]): 12 nM
WQNYTPGPGV | – | 230 | 223 | 12000 | –
ELEASISGKY | – | – | – | – | IC50 (HLA-A*2902; [8]): 21900 nM
RLPVICSFLV | 2.5 | 33 | 19 | 9180 | –
RLFEESLGI | 1.9 | 5.5 | 68 | 418 | –
LTDVSIACVY | – | – | – | – | IC50 (HLA-A*2902): 764 nM; IC50 (HLA-A*3002): 72 nM
KVYGLSAFV | 1.8 | 11 | 69 | 110 | –
QAHCNISRA | – | – | – | – | IC50 (HLA-A*0201; [7]): 338 nM
YMIKKLLKI | 4.6 | 4.7 | 93 | 63100 | –
ILDLWVYNV | – | – | – | – | IC50 (HLA-A*0201): 40 nM; IC50 (HLA-A*0202): 30 nM; IC50 (HLA-A*0203): 201 nM
WLNYTPGPGI | – | – | – | – | IC50 (HLA-A*0202): 4.6 nM; IC50 (HLA-A*0203): 46 nM; IC50 (HLA-A*0206): > 31600 nM; IC50 (HLA-A*6802): 1200 nM
KTYGGPGPGY | – | – | – | – | IC50 (HLA-A*2902; [8]): 228 nM; IC50 (HLA-A*3002; [9]): 1.7 nM
IISAVVAIL | 8 | 45 | 1440 | 148 | –
TLQGPGPGL | 62 | 951 | 9120 | 3810 | –
FPFKYAAAV | – | – | – | 92 | –
KMTFLCVQM | 22 | 525 | 100 | 8740 | –
WLGPGPGFV | 4.1 | 2.2 | 530 | 293 | –
FVSSIFISFY | – | – | – | – | IC50 (HLA-A*2902; [8]): 22 nM; IC50 (HLA-A*3002; [9]): 84 nM
TYGWCFKL | – | – | – | – | IC50 (HLA-A*2902): 25700 nM; IC50 (HLA-A*3002): > 8040 nM
